“Also recorded” adds a separate entry of the source.
Assays:
SIRT1 = biological target: T1, SIRT1 (Homo sapiens, UniProt Q96EB6); assay: In vitro inhibition of SIRT1 by cambinol analogs
T1 sequence (Q96EB6 1-747): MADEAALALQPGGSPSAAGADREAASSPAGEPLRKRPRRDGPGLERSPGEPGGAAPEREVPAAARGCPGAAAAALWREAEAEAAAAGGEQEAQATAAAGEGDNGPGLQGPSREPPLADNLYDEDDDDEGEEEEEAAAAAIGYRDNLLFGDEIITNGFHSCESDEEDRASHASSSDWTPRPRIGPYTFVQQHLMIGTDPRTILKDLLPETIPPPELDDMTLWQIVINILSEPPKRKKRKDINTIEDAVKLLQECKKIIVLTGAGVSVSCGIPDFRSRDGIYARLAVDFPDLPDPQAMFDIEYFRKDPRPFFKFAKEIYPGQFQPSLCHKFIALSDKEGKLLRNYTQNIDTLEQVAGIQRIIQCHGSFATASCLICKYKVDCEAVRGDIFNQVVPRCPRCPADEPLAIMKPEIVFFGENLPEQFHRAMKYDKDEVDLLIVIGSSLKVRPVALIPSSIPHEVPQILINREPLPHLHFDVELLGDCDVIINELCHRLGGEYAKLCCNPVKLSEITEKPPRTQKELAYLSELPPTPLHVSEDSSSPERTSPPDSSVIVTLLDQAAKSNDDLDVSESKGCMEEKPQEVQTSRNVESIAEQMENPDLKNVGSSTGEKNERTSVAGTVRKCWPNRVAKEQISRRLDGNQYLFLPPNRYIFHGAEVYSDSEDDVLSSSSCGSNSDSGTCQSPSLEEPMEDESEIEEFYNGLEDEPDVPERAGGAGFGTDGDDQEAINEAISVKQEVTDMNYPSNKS

[1] = system: p53 and acetylated p53 in MCF-7 breast adenocarcinoma cells; assay: Expression of p53 and acetylated p53 in MCF-7 cells treated with compound, with etoposide (FIG. 3); format: cell-based
Protocol: Additionally, cells were treated with the same compounds in the presence of the genotoxic agent etoposide.
(§1) Further evidence to support the selective targeting of SIRT1 and SIRT2 by these analogs came from studies in cells.

SIRT2 = biological target: T2, SIRT2 (Homo sapiens, UniProt Q8IXJ6); assay: In vitro inhibition of SIRT2 by cambinol analogs
T2 sequence (Q8IXJ6 1-389): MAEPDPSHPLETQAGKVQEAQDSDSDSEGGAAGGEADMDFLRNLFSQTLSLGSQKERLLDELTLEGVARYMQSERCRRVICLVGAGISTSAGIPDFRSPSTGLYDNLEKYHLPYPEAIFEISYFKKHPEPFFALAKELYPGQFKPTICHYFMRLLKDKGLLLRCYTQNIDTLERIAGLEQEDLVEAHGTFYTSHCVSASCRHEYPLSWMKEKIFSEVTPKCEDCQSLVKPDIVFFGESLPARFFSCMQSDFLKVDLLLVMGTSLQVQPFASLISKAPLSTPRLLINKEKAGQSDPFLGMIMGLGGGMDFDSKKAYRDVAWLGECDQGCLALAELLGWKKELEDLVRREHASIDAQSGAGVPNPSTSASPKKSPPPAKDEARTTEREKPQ

[2] = system: acetylated α-tubulin in H1299 cells; assay: Acetylated tubulin levels in H1299 cells treated with compound and Trichostatin A (FIG. 2); format: cell-based; conditions: H1299 cells, with Trichostatin A
Source text: Total tubulin was used as a loading control.
as §1

[3] = system: p53 and acetylated p53 in NCl H460 cancer cells; conditions: etoposide (10 μM); cited from earlier work
[4] = in the presence of etoposide (10 μM)

melting point	improvement in activity against SIRT1 compared with cambinol (1) (SIRT1; from IC50 values)	IC50 (SIRT1; read-out: IC50 SIRT1, repeated at least two times)	inhibition at 60 µM (SIRT1; read-out: Inhibition at 60 μM ± SE (%) SIRT1)	activity against SIRT2 in words (SIRT2; compared with cambinol (1))	inhibition at 60 µM (SIRT2; read-out: Inhibition at 60 μM ± SE (%) SIRT2)	SMILES	selectivity for SIRT1 over SIRT2 in words (SIRT1; in vitro)	levels of p53 [1, 4]	levels of p53 acetylated at lysine 382 ([1]; in the presence of etoposide, compared to cambinol (1))	acetylation of tubulin [2]	levels of p53 and acetylated p53 [3]	concentration at which maximal p53 levels were observed [1, 4]
282 to 287 °C	4 fold	12.7 ± 2 µM	82.3 ± 1%	relative lack of activity	9.4 ± 1%	O=c1[nH]c(=S)[nH]c(-c2ccc(Br)cc2)c1Cc1c(O)ccc2ccccc12 [Compound 6b, 6-(4-Bromo-phenyl)-5-(2-hydroxy-naphthalen-1-ylmethyl)-2-thioxo-2,3-dihydro-1H-pyrimidin-4-one]	relatively selective inhibition of SIRT1; also recorded: selective SirT1 inhibitor	increased p53 levels	clear increase in potency compared to cambinol (1)	did not lead to an increase in acetylation of tubulin	–	–
–	–	–	–	–	–	O=c1[nH]c(=S)[nH]c(-c2ccccc2)c1Cc1c(O)ccc2ccccc12 [Compound 1, 5-(2″-Hydroxy-naphthalen-1-ylmethyl)-6-phenyl-2-thioxo-2,3-dihydro-1H-pyrimidin-4-one, reference compound]	–	increased	–	–	higher levels of p53 and acetylated p53	50 µM

Source: patent US8563557B2, “Pyrimidine derivatives and their pharmaceutical use” (University Court of the University of Dundee, priority 2008, dated 2013)
